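Interpolation was linear, between the two tested concentrations surrounding the appropriate level; five concentrations were tested over 48 hours in 96-well plates. TGI: total growth inhibition.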
Tests used:
Assay in all cases: DTP human tumour cell line panel, 48 h
NCI-H226 lung = test system: NCI-H226 lung
HL-60(TB) leukemia = test system: HL-60(TB) leukemia
SW-620 colon = test system: SW-620 colon
RPMI-8226 leukemia = test system: RPMI-8226 leukemia
HCC-2998 colon = test system: HCC-2998 colon
MALME-3M melanoma = test system: MALME-3M melanoma
BT-549 breast = test system: BT-549 breast
HOP-62 NSCLC = test system: HOP-62 NSCLC
SK-MEL-28 melanoma = test system: SK-MEL-28 melanoma
HOP-92 NSCLC = test system: HOP-92 NSCLC
KM12 colon = test system: KM12 colon
OVCAR-5 ovarian = test system: OVCAR-5 ovarian
MOLT-4 leukemia = test system: MOLT-4 leukemia
SK-MEL-5 melanoma = test system: SK-MEL-5 melanoma
PC-3 prostate = test system: PC-3 prostate
SK-MEL-2 melanoma = test system: SK-MEL-2 melanoma
MCF7 breast = test system: MCF7 breast
A549 NSCLC = test system: A549 NSCLC
EKVX NSCLC = test system: EKVX NSCLC
U251 CNS = test system: U251 CNS

SMILES | TGI (NCI-H226 lung) [µM] | TGI (HL-60(TB) leukemia) [µM] | TGI (SW-620 colon) [µM] | TGI (RPMI-8226 leukemia) [µM] | TGI (HCC-2998 colon) [µM] | TGI (MALME-3M melanoma) [µM] | TGI (BT-549 breast) [µM] | TGI (HOP-62 NSCLC) [µM] | TGI (SK-MEL-28 melanoma) [µM] | TGI (HOP-92 NSCLC) [µM] | TGI (KM12 colon) [µM] | TGI (OVCAR-5 ovarian) [µM] | TGI (MOLT-4 leukemia) [µM] | TGI (SK-MEL-5 melanoma) [µM] | TGI (PC-3 prostate) [µM] | TGI (SK-MEL-2 melanoma) [µM] | TGI (MCF7 breast) [µM] | TGI (A549 NSCLC) [µM] | TGI (EKVX NSCLC) [µM] | TGI (U251 CNS) [µM]
COc1cc(S(=O)(=O)Nc2ccc(-c3csc(N4C(=O)CSC4c4cccs4)n3)cc2)ccc1Cl (configuration not stated) | 81.8 | 41.5 | 68.5 | 66.8 | 30.7 | 70.6 | 70.5 | > 100 | 39.5 | > 100 | 48.7 | > 100 | > 100 | > 100 | > 100 | 42.6 | 31.7 | > 100 | > 100 | 
CN(C)c1ccc(-c2c(C#N)c(N)[nH]c(=S)c2C#N)cc1 | 92.2 | > 100 | > 100 |  | > 100 | > 100 | > 100 | > 100 | > 100 | > 100 |  | > 100 |  | > 100 | > 100 | > 100 | > 100 | > 100 | > 100 | > 100
O=C1CSC2(CC(/C=C/c3ccccc3O)=NN2c2cccc(S(=O)(=O)O)c2)N1c1nc2ccccc2s1 (configuration not stated) | > 100 | 49 | > 100 | 42.1 | 52.6 | > 100 | 77 |  | > 100 | > 100 | > 100 | 64.4 | 82.9 | > 100 | > 100 | > 100 | > 100 | > 100 | > 100 | > 100
CC1=NC(=O)C(C)(c2ccccc2)N1CCc1ccccc1 (configuration not stated) | > 100 | > 100 | > 100 | > 100 | > 100 | > 100 | > 100 | > 100 |  | > 100 | > 100 | > 100 | 94.7 | > 100 | > 100 | > 100 | > 100 | > 100 | > 100 | > 100
COc1ccccc1C1CC(=O)CC(c2ccccc2OC)C12C(=O)NC(=S)NC2=O (configuration not stated) | > 100 | 69.5 | > 100 | 52.7 | > 100 | > 100 | > 100 | > 100 | 95.6 | > 100 | > 100 | > 100 | 95.8 | > 100 | > 100 | > 100 | > 100 |  | > 100 | > 100
CCCCc1ccc(Nc2nc(Cl)c3c(ncn3COCCOC(C)=O)n2)cc1 | 40.6 | 49.9 | 41.4 | > 100 | 34.3 | 36.9 | 31.4 | 31.5 |  | 43.6 | 37.5 | 37.5 | 42.5 | 36.2 | 37.4 | 39.2 | 49.1 | 41 | 37.1 | 43.1

— PubChem BioAssay (NCI)
